The record followed here is patent publication US9265922B2, “System and method for improving outcome of cerebral ischemia” (ASTUCE, INC., priority 2012, dated 2016).

Data set [1] has as its system humans (normal volunteers). Briefly: Tolerability of intranasal nitric oxide in normal volunteers. Type of data set: in vivo, human. The following applies: high concentration, delivered intra-nasally and without inhalation. The text has this:
While nitric oxide may be given intranasally and without inhalation into the lungs to intubated, comatose individuals the tolerability of intranasal nitric oxide in awake humans has not previously been investigated. The inventors have tested the effect of nitric oxide in humans (normal volunteers) during intranasal delivery. […] Therefore it can easily be tolerated by awake, non-intubated patients.

For data set [2], the system named is carotid artery occlusion model. Put plainly: Carotid artery occlusion model, Speckle laser Doppler, intranasal nitric oxide. Type of data set: in vivo, rodents. As to the method: (§1) In intubated rodents, the inventors have shown that cerebral blood flow increases by 100% within 60 minutes of intranasal nitric oxide delivery.
Increase in cerebral blood flow is attributable to focal intranasal or intra-oral effect of nitric oxide rather than to systemic absorption of the gas. […] The effect on cerebral blood flow during intranasal delivery of nitric oxide with concomitant air inhalation into the lungs is therefore a focal effect on intranasal and intracranial vasculature attributable specifically to nitric oxide. […] In a non-intubated patient, nitric oxide inhalation can be prevented by occluding the nasal cavity anterior or posterior to the site of gas delivery. This is achieved by means of an anterior occlusion device such a rigid member, an expandable member, a compressible member, a sponge, a porous member, a plug, a balloon, foam and/or combinations of the foregoing, which prevent inhalation through the nostrils while maintaining a high concentration of nitric oxide in the nasal cavity. A non-intubated patient may be allowed to inhale air into the lungs during nitric oxide delivery into the nasal cavity by an optional central lumen with the distal orifice beyond the sites of nasal gas delivery and occlusion device.

Data set [3] deals with patients with cerebral ischemia. Put plainly: CT perfusion scanning in intubated patients with cerebral ischemia before and after intranasal nitric oxide. It counts as in vivo, human.
The subject of a further data set is intubated rodents. Put plainly: Cerebral blood flow by cortical laser Doppler during intranasal nitric oxide in intubated rodents. Type of data set: in vivo. As to the method:
as §1

Entries after “also recorded” stand apart in the source; their conditions may differ.

For the compound `[N]=O` [nitric oxide], the “tolerability of gas treatment” value in data set [1] is on record as “tolerated”. Besides, the “perfusion in the ischemic hemisphere” value in data set [2] (both during the carotid occlusion and following ligature release (FIG. 9)) was “improved”. For the same compound, the “cerebral ischemia (FIG. 9, Speckle laser Doppler tracing)” value in data set [2] (intubated rodents given intranasal nitric oxide) is “reduction of cerebral ischemia”. Further, the “increase in perfusion on L (Cerebral Blood Flow, ACA Watershed)” value in data set [3] (Post Rx versus Pre Rx, left ischemic hemisphere) came to 67% increase in. Further, the “Mean Transit Time, Changes in ACA Watershed” value in data set [3] (Post Rx, Pre Rx 4 sec delay) was “Normalization”. In addition, the “Cerebral Blood Flow, Changes in ACA Watershed” value in data set [3] (Post Rx, Pre Rx 37% lower on ischemic side) is “Normalization,”. For the same compound, the “cerebral perfusion by CT perfusion scanning” value in data set [3] (intubated patients with cerebral ischemia, during treatment with intranasal nitric oxide (FIGS. 10, 11)) is “improvement in cerebral perfusion; also recorded: augmentation of cerebral perfusion and normalization of regional perfusion abnormalities”. The “cerebral blood flow (FIG. 8, cortical laser Doppler)” value in the data set on intubated rodents (during intranasal administration) is “doubling of cerebral blood flow”. Further, the “cerebral blood flow increase” value in the data set with intubated rodents (within 60 minutes of intranasal non-inhaled nitric oxide delivery) came to 100%.
